Experimental data published in ChEMBL document CHEMBL2396617, “Activity-lipophilicity relationship studies on P-gp ligands designed as simplified tariquidar bulky fragments” (Bioorg Med Chem Lett, 2013).
Active and inactive are the calls of the source. The rule behind the calls is not given here.

Key:
MDCK = assay: Activation of ATPase activity of P-glycoprotein (unknown origin) expressed in MDCK cells assessed as reduction of reduction of ATP level after 2 hrs by luminescence assay; type: cell-based; conditions: Homo sapiens
[1] = Inhibition of P-glycoprotein (unknown origin) expressed in MDCK cells assessed as reduction of calcein-AM transport after 30 mins by fluorescence assay; type: cell-based, Homo sapiens
[2] = molecular target: Multidrug resistance-associated protein 1 (Homo sapiens, UniProt P33527); assay: Inhibition of MRP1 (unknown origin) expressed in MDCK cells assessed as reduction of calcein-AM transport after 30 mins by fluorescence assay; type: cell-based
Multidrug resistance-associated protein 1, sequence (P33527 whole entry): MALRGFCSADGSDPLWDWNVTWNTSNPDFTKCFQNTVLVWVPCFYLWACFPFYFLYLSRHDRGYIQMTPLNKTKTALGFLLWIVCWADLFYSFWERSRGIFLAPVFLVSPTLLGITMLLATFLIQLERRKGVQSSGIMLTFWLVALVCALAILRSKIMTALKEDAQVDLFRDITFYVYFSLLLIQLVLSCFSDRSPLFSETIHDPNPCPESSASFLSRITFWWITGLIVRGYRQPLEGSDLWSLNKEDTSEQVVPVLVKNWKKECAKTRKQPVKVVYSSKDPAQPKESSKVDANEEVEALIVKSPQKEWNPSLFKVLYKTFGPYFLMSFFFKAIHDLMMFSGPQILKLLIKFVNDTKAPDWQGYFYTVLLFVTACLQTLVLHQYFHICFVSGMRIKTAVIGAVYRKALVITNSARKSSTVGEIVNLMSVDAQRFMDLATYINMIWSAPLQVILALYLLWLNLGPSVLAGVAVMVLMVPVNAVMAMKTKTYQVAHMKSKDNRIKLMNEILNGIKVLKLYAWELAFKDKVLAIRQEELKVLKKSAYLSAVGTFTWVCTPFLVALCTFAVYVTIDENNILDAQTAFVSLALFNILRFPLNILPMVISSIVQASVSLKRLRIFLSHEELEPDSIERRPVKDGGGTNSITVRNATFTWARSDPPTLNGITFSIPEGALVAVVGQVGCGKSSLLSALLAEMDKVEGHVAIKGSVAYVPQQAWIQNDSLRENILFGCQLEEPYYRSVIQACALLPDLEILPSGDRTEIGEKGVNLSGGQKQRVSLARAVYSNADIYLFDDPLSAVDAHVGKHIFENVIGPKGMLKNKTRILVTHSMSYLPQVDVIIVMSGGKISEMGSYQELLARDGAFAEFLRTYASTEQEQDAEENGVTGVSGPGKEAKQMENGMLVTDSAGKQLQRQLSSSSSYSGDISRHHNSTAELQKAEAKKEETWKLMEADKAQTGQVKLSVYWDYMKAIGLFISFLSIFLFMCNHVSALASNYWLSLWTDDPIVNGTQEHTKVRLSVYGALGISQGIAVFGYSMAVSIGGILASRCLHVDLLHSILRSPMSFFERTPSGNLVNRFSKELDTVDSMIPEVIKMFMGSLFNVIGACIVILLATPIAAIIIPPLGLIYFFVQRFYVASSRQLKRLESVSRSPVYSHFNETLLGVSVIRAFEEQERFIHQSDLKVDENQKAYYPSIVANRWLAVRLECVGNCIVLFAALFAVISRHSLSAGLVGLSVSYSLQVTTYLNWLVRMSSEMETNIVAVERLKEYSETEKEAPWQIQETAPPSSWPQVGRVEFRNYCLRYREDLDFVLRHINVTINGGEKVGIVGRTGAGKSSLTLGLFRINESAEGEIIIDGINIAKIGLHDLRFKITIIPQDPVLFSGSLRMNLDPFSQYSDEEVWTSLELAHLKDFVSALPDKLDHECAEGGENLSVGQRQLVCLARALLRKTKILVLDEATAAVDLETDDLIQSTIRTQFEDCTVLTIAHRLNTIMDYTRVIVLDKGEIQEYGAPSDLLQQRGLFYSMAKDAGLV

[3] = molecular target: T1, Broad substrate specificity ATP-binding cassette transporter ABCG2 (Homo sapiens, UniProt Q9UNQ0); assay: Inhibition of BCRP (unknown origin) expressed in MDCK cells assessed as reduction of […] transport after 30 mins by fluorescence assay; type: cell-based
T1 sequence (Q9UNQ0 whole entry): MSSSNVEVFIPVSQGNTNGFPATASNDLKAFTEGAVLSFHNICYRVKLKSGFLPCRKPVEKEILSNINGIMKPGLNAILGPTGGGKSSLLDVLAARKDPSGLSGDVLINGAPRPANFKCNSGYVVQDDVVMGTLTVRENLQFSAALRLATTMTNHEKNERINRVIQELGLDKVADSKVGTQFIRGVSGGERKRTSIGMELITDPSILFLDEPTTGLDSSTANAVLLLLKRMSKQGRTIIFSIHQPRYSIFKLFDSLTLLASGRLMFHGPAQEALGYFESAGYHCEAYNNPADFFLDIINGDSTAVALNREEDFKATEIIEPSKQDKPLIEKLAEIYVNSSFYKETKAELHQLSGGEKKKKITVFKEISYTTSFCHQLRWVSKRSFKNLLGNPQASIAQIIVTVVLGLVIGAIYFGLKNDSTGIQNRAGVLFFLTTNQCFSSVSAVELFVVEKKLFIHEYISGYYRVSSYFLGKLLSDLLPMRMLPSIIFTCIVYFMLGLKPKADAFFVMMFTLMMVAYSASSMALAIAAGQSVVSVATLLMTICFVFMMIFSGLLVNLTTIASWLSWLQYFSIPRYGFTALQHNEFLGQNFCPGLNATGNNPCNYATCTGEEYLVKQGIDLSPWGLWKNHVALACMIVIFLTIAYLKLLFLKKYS

[4] = P-glycoprotein-mediated transport in human Caco2 cells assessed as efflux ratio of apparent permeability from basolateral to apical over apical to basolateral after 120 mins; type: ADME, cell-based; conditions: caco-2, 2 h

Row | EC50 [1] | EC50 [2] | EC50 [3] | Ratio [4] | SMILES | Activity (MDCK)
1 | 40 µM | > 100 µM | > 100 µM | – | COc1cc2c(cc1OC)CN(CCCOc1ccnc3ccccc13)CC2 | inactive
2 | 1.3 µM | > 100 µM | > 100 µM | 4.6 | COc1cc2c(cc1OC)CN(CCOc1ccc3ccccc3n1)CC2 | inactive

Continued, compound first:

Row | SMILES | EC50 [1] | EC50 [2] | EC50 [3] | Ratio [4] | Activity (MDCK)
3 | COc1cc2c(cc1OC)CN(C(=O)COc1ccc3ccccc3n1)CC2 | 67 µM | > 100 µM | > 100 µM | – | inactive
4 | COc1cc2c(cc1OC)CN(CCCCOc1ccc3ccccc3n1)CC2 | 4.3 µM | > 100 µM | > 100 µM | 4.2 | inactive
5 | COc1cc2c(cc1OC)CN(CCCOc1ccc3ccccc3n1)CC2 | 6.1 µM | > 100 µM | > 100 µM | 4.4 | inactive
6 | COc1cc2c(cc1OC)CN(CCCCCOc1ccc3ccccc3n1)CC2 | 1.2 µM | > 100 µM | > 100 µM | 2.9 | inactive
